Laboratory results as given in patent publication EP1207391A1, “METHOD FOR SCREENING TARGETING DDS PREPARATION” (Ajinomoto Co., Inc., priority 1999, dated 2001).
Values joined by “and” are separate entries in the source; they are usually repeats but may differ in a detail not shown here. Equal entries are not always repeated. Where two headings read alike, the source gives them in different places.

Key:
[1] = biological target: T1, asialoglycoprotein receptor (Mus musculus, UniProt P24721+P34927); assay: Screening of ligand (1): bound 125I-ASOR after incubation of hepatocytes with unlabeled ligand (Example 17); type: cell-based; settings: bound counts of 125I-ASOR after 10 minutes at 37°C with ligand at 100 - 2000 times of Kd; mean of 3
T1 construct: Mouse primary cultured hepatocytes, which were cultured for overnight on the 12 well plate, isolated by collagenase perfusion; endogenous in cells; host or cells: mouse (C57BL/6) primary hepatocytes cultured overnight on 12-well plates
T1 sequence (P34927 1-284): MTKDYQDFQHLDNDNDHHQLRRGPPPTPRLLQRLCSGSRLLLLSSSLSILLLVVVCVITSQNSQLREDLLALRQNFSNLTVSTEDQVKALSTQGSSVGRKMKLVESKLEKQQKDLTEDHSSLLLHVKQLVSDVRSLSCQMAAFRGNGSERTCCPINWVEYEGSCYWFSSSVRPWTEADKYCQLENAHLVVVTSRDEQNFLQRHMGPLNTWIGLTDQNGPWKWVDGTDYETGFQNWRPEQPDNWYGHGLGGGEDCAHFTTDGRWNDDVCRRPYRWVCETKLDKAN
T1 sequence (P24721 1-301): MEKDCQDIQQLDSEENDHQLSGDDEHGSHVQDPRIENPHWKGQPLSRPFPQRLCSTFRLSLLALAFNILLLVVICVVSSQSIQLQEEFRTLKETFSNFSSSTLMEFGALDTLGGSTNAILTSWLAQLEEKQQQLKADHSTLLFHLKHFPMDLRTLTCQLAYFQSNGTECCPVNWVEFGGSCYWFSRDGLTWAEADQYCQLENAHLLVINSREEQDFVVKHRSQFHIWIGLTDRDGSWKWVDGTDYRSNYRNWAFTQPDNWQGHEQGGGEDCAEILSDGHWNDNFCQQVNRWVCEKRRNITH
Description: A method for screening ligand having high ability to avoid the internalization without radio labeling each ligand and without calculation of kint and koff, was performed as follows.
Concretely, mouse primary cultured hepatocytes, which were isolated by a method of Berry et al. collagenase perfusion method shown in example and cultured overnight on 12 well plate, was washed twice with D-MEM (pH 7.4) (each 2 ml) containing D-PBS, 0.1% BSA and 20 mM Hepes. The same D-MEM medium (1 ml) was added thereto and preincubated at 37°C for 60 minutes. Cooled D-PBS (pH 5.0) containing 10 mM EDTA was added to the cells, allowed to stand under ice cooling for 4 minutes and washed twice with cooled D-PBS (2 ml). […] After 10 minutes, the plate was placed on the ice bath, added the cooled D-PBS (pH 5.0) containing 10 mM EDTA, allowed to stand under ice cooling for 4 minutes, and washed 4 times with cooled D-PBS (1 ml). D-MEM solution (0.4 ml) of 0.6 nM ^125I-ASOR was added to the cells in each well on the ice bath, and allowed to stand at 4°C for 60 minutes. On the ice bath, they were washed 4 times with cooled D-PBS (1 ml), allowed to stand at -80°C for more than 30 minutes, added 0.1 N sodium hydroxide (0.5 ml), and incubated at 37°C formore than 1 hour. Amount of receptor remained on the surface (ligand bound or free) other than the internalization by endocytosis was calculated by measuring the cell lysis with ã-counter (mean of 3 repeats).

[2] = biological target: T1, asialoglycoprotein receptor; assay: Screening of ligand (2): kint and koff without labeling the ligand (Example 18); type: cell-based; settings: for kint: 37°C for 10 minutes, 125I-ASOR read-out
Description: A method for screening ligand having high ability to avoid the internalization without radio labeling each ligand to obtain kint and koff and to calculate simply the ability to avoid the internalization (= kint / koff) was performed as follows. […] Concretely, mouse primary cultured hepatocytes, which were isolated by the method of Berry et al. collagenase perfusion method shown in example and cultured overnight on 12 well plate, was washed twice with D-MEM (pH 7.4) (each 2 ml) containing D-PBS, 0.1% BSA and 20 mM Hepes. The same D-MEM medium (1 ml) was added thereto and preincubated at 37°C for 60 minutes. Cooled D-PBS (pH 5.0) containing 10 mM EDTA was added to the cells, allowed to stand under ice cooling for 4 minutes and washed twice with cooled D-PBS (2 ml). Using the thus prepared plate, experiments for calculating kint and koff were performed. […] Separately, the system without addition of the ligand was incubated for 0 minute and for 10 minutes at 37°C. After the necessary time has passed, immediately the plate was placed on the ice bath, added the cooled D-PBS (pH 5.0) containing 10 mM EDTA, allowed to stand under ice cooling for 4 minutes, and washed 4 times with cooled D-PBS (1 ml). D-MEM solution (0.4 ml) of 0.6 nM ^125I-ASOR was added to the cells in each well on the ice bath, and allowed to stand at 4°C for 60 minutes. […] Amount of receptor remained on the surface (ligand bound or free) other than the integration by endocytosis was calculated by measuring the cell lysis with ã-counter (mean of 3 repeats). The obtained amount of ratio activity was all divided by the concentration of the added solution (cpm/μl) to convert the distribution volume (μl/well). […] Separately, with regard to the system without ligand, only the said D-MEM medium is added 0.4 ml and incubated. […] The cell lytic solution was measured using γ-counter to calculate amount of the dissociated cold ligand once bound with the receptor. The amount of obtained radio activity is all divided by the concentration of the added solution (cpm/μl) and converted to the distribution volume (μl/well). With regards to the ligand non-added system and the ligand added system, the binding rate for 15 minutes is calculated by subtracting the distribution volume in the incubation for 5 minutes from the distribution volume in the incubation for 20 minutes. The binding rate without addition of the ligand is set as 100 and the binding rate of each ligand is converted into the percentage to the control (% of control).

[3] = biological target: T1, asialoglycoprotein receptor; assay: Binding inhibition experiment 2 of 125I-ASOR on mouse primary cultured hepatocytes (Example 9); settings: read-out: Ki value, 0.6 nM 125I-ASOR, 4°C for 60 minutes
Description: In the binding inhibition experiment according to the method of Biessen, et al. performed in example 8, a concentration of added ^125I-ASOR was 22 nM. Kd value of ASOR is approximately several nM and the concentration of added ASOR is higher that the actual Kd value, consequently, in the experiment in example 8, the binding inhibition by each ligand is difficult to generate and the Kd value is estimated too high. In order to evaluate newly synthesized ligand[(Gal)3(6) and (Gal)2(9)], calculation of more exact Ki value is necessary.
Mouse primary cultured hepatocytes, which were cultured for overnight on the 12 well plate, isolated by collagenase perfusion described in examples of Berry, et al., were washed twice with D-MEM (pH 7.4) (each 2 ml) containing D-PBS, 0.1% BSA and 20 mM Hepes, added said D-MEM medium (1 ml), and preincubated at 37°C for 60 minutes. The cooled D-PBS (pH 5.0) containing 10 mM EDTA was added to the cells, allowed to stand under ice-cooling for 4 minutes, and washed twice with cooled D-PBS (2 ml). […] The cells were washed, on the ice bath, 4 times with cooled D-PBS (1 ml), allowed to leave at -80°C for more than 30 minutes, added 0.1 N aqueous sodium hydroxide (0.5 ml), incubated at 37°C for more than 1 hour, and measured the cell lytic solution by using γ-counter to calculate amount of bound ^125I-ASOR on the surface of cells. […]

[4] = biological target: T2, asialoglycoprotein receptor (ASGP-R) (Mus musculus, UniProt P24721+P34927); assay: Binding inhibition experiment of 125I-ASOR to mouse liver cells (Example 8, method of Biessen et al.); settings: for Ki: 4°C
T2 construct: The liver parenchymal cells (in 4 ml Falcon tube, 0.6 - 1.0 × 10^6/0.5 ml in ice bath); endogenous in cells; host or cells: freshly isolated mouse liver parenchymal cells (C57BL/6) in suspension
T2 sequence (P34927 1-284): T1 sequence (P34927 1-284)
T2 sequence (P24721 1-301): T1 sequence (P24721 1-301)
Description: Among these ligands, we have first examined two types of ligands for asialoglycoprotein receptor on hepatocytes, i.e. the three-branched galactose ligand [(Gal)3] of the following formula: [drawing 5] and the three-branched N-acetylgalactosamine ligand [(GalNAc)3] of the following formula: [drawing 6] and their binding forms to IL-2. At first, the Kd value, which is an index of the binding affinity to ASGP-R, was calculated. Table 1,
Binding inhibition experiments of ASOR to mouse liver cells using each ligand were performed according to a method of Biessen, et al. [Biessen, E.A.L. et al., J. Biol. Chem., 271(45): 28024-28030 (1996)].
The liver parenchymal cells (in 4 ml Falcon tube, 0.6 - 1.0 × 10^6/0.5 ml in ice bath) was added to D-PBS containing 2% BSA. Inhibitor 0.25 ml prepared for various concentration with D-PBS containing 2% BSA was added thereto. ^125I-ASOR 0.25 ml (22 nM) in D-PBS containing 2% BSA was added therein and stirred gently at 4°C for 2 hours.
The mixture was centrifuged at 50G for 1 minute, discarded the supernatant solution, added D-PBS containing 2% BSA and stirred, then again centrifuged at 50G for 1 minute, and discarded the supernatant medium. This procedure was repeated again and the medium was measured by γ-counter.
Thereafter, 0.1 N NaOH containing 10% SDS 1 ml was added thereto, and the protein concentration was measured by Lowry method using the protein assay kit (Biorad Inc.).
As a result, depending on the increase in the added concentration of (GalNAc)3 and (Gal)3, […] was dissociated with almost monophasic manner. Data of dissociation obtained by three repeated experiments were analyzed using non-linear single site model to calculate the binding inhibition constant (Ki).
Large differences were observed between two types of the ligand.

Row | koff ([2]; unlabeled ligand, 4°C, 125I-ASOR binding rate for 15 minutes, read-out: koff (converted)) | SMILES | Bound [1] | kint ([2]; unlabeled ligand) | Ki [3] | koff [2] | affinity relative to (GalNAc)3 ([4]; ratio of affinities from Kd values) | Ki ([4]; read-out: Binding inhibitory constant (Ki) Ave., average of three repeated experiments, 125I-ASOR 22 nM) | Ki ([4]; read-out: Binding inhibitory constant (Ki), individual experiments 1-3, binding of 125I-ASOR (22 nM) to mouse hepatocytes) | Kd ([4]; read-out: Kd value, calculated from the Ki of Table 1)
1 | 0.000395 s⁻¹ | NCCCCCC(=O)N[C@@H](CCC(=O)NCCOCCOCCO[C@@H]1O[C@H](CO)[C@H](O)[C@H](O)[C@H]1O)C(=O)NCCOCCOCCO[C@@H]1O[C@H](CO)[C@H](O)[C@H](O)[C@H]1O (atropisomer, axis not shown) [(Gal)2(9)] | 1670 cpm | 0.0605 min⁻¹ | – | – | – | – | – | –
2 | – | NCCCCCC(=O)NC(CCC(=O)NCCOCCO[C@@H]1O[C@H](CO)[C@H](O)[C@H](O)[C@H]1O)C(=O)NC(CCC(=O)NCCOCCO[C@@H]1O[C@H](CO)[C@H](O)[C@H](O)[C@H]1O)C(=O)NCCOCCO[C@@H]1O[C@H](CO)[C@H](O)[C@H](O)[C@H]1O (stereo partly drawn) [(Gal)3(6)] | 2015 cpm | 0.0417 min⁻¹ | 0.369 µM | 0.00113 s⁻¹ | – | – | – | –
3 | – | NCCCCCC(=O)NC(CCC(=O)NCCOCCOCCO[C@@H]1O[C@H](CO)[C@H](O)[C@H](O)[C@H]1O)C(=O)NC(CCC(=O)NCCOCCOCCO[C@@H]1O[C@H](CO)[C@H](O)[C@H](O)[C@H]1O)C(=O)NCCOCCOCCO[C@@H]1O[C@H](CO)[C@H](O)[C@H](O)[C@H]1O (stereo partly drawn) [(Gal)3, three-branched galactose ligand] | 1784 cpm | 0.054 min⁻¹ | 0.157 µM | 0.000943 s⁻¹ | approximately 1/200 | 350 µM and 354 µM | 681 µM and 351 µM and 292 µM | 354 µM
